Laboratory results as given in ChEMBL document CHEMBL5576049, “Synthesis and cytotoxicity of novel 6,8,9-trisubstituted purine analogs against liver cancer cells” (Bioorg Med Chem Lett, 2024).
Activity calls are given as the source filed them. The calls are words filed in the database; no cut-off is given here.

Key:
Format in all cases: functional, cell-based
[1] = test system: MCF7; assay: Cytotoxicity against human MCF7 cells assessed as cell growth inhibition incubated for 72 hrs by SRB assay; conditions: for IC50: MCF7, 72 h
[2] = test system: Huh-7; assay: Cytotoxicity against human Huh-7 cells assessed as cell growth inhibition incubated for 72 hrs by SRB assay; conditions: for IC50: Huh-7, 72 h
[3] = test system: HCT-116; assay: Cytotoxicity against human HCT-116 cells assessed as cell growth inhibition incubated for 72 hrs by SRB assay; conditions: for IC50: HCT-116, 72 h
[4] = test system: Mahlavu; assay: Cytotoxicity against human Mahlavu cells assessed as cell growth inhibition incubated for 72 hrs by SRB assay
[5] = test system: SNU-398; assay: Cytotoxicity against human SNU-398 cells assessed as cell growth inhibition incubated for 72 hrs by SRB assay; conditions: SNU-398, 72 h
[6] = Cytotoxicity against human FOCUS cells assessed as cell growth inhibition incubated for 72 hrs by SRB assay
[7] = test system: PLC; assay: Cytotoxicity against human PLC cells assessed as cell growth inhibition incubated for 72 hrs by SRB assay
[8] = test system: SNU-475; assay: Cytotoxicity against human SNU-475 cells assessed as cell growth inhibition by SRB assay
[9] = test system: SNU-182; assay: Cytotoxicity against human SNU-182 cells assessed as cell growth inhibition incubated for 72 hrs by SRB assay; conditions: SNU-182, 72 h
[10] = test system: SNU-449; assay: Cytotoxicity against human SNU-449 cells assessed as cell growth inhibition incubated for 72 hrs by SRB assay; conditions: SNU-449, 72 h
[11] = test system: HepG2; assay: Cytotoxicity against human HepG2 cells assessed as cell growth inhibition incubated for 72 hrs by SRB assay; conditions: HepG2, 72 h
[12] = test system: SNU-387; assay: Cytotoxicity against human SNU-387 cells assessed as cell growth inhibition incubated for 72 hrs by SRB assay; conditions: SNU-387, 72 h
[13] = test system: Hep 3B2; assay: Cytotoxicity against human Hep3B cells assessed as cell growth inhibition incubated for 72 hrs by SRB assay
[14] = test system: SNU-423; assay: Cytotoxicity against human SNU-423 cells assessed as cell growth inhibition incubated for 72 hrs by SRB assay; conditions: SNU-423, 72 h

Compound | IC50 [1] | IC50 [2] | IC50 [3] | Activity [3] | other results
Cc1ccc(-c2nc3c(N4CCN(c5ccccc5)CC4)ncnc3n2C2CCCC2)cc1 | 21.4 µM | 12.9 µM | 18.8 µM | – | –
Brc1ccc(-c2nc3c(N4CCN(c5ccccc5)CC4)ncnc3n2C2CCCC2)cc1 | 15 µM | 11.1 µM | 28.8 µM | – | –
COc1ccc(-c2nc3c(N4CCN(c5ccc(C(F)(F)F)cc5)CC4)ncnc3n2C2CCCC2)cc1 | – | 9.8 µM | – | inactive | Activity [1]: inactive
Cc1ccc(-c2nc3c(N4CCN(c5ccc(C)cc5)CC4)ncnc3n2C2CCCC2)cc1 | 47.5 µM | 17.4 µM | 33.4 µM | – | –
Cc1ccc(N2CCN(c3ncnc4c3nc(-c3ccc(Cl)cc3)n4C3CCCC3)CC2)cc1 | 21.6 µM | 15.7 µM | 6.5 µM | – | –
O=c1[nH]cc(F)c(=O)[nH]1 [FLUOROURACIL] | – | – | 4.1 µM | – | –
Nc1nc(Cl)nc2c1ncn2[C@H]1C[C@H](O)[C@@H](CO)O1 [CLADRIBINE] | 2.4 µM | 0.9 µM | < 0.1 µM | – | IC50 [4]: < 0.1 µM; IC50 [5]: < 0.1 µM; IC50 [6]: < 0.1 µM
FC(F)(F)c1ccc(-c2nc3c(N4CCN(c5ccc(Cl)c(Cl)c5)CC4)ncnc3n2C2CCCC2)cc1 | 7.2 µM | 35.1 µM | – | inactive | –
COc1ccc(-c2nc3c(N4CCN(c5ccc(Cl)cc5)CC4)ncnc3n2C2CCCC2)cc1 | 69.8 µM | 5.5 µM | 30.9 µM | – | –
Fc1ccc(-c2nc3c(N4CCN(c5ccc(Cl)c(Cl)c5)CC4)ncnc3n2C2CCCC2)cc1 | – | 30 µM | 50.6 µM | – | Activity [1]: inactive
FC(F)(F)c1ccc(-c2nc3c(N4CCN(c5ccc(Cl)cc5)CC4)ncnc3n2C2CCCC2)cc1 | 57.9 µM | 61.4 µM | – | inactive | –
Clc1ccc(-c2nc3c(N4CCN(c5ccccc5)CC4)ncnc3n2C2CCCC2)cc1 | 19.8 µM | 23.2 µM | 5.8 µM | – | –
Fc1ccc(-c2nc3c(N4CCN(c5ccc(Cl)cc5)CC4)ncnc3n2C2CCCC2)cc1 | – | 20.2 µM | 51.4 µM | – | Activity [1]: inactive
Cc1ccc(-c2nc3c(N4CCN(c5ccc(C(F)(F)F)cc5)CC4)ncnc3n2C2CCCC2)cc1 | 26.2 µM | 13.1 µM | 34.3 µM | – | –
COc1ccc(-c2nc3c(N4CCN(c5ccc(Cl)c(Cl)c5)CC4)ncnc3n2C2CCCC2)cc1 | 30.6 µM | 7.4 µM | 33.6 µM | – | –
Nc1nc(F)nc2c1ncn2[C@@H]1O[C@H](CO)[C@@H](O)[C@@H]1O [FLUDARABINE] | – | 28.4 µM | – | – | –
COc1ccc(-c2nc3c(N4CCN(c5ccccc5)CC4)ncnc3n2C2CCCC2)cc1 | – | 57.1 µM | 42.3 µM | – | Activity [1]: inactive

Compound | IC50 [1] | IC50 [2] | IC50 [3] | Activity [3] | other results
Cc1ccc(N2CCN(c3ncnc4c3nc(-c3ccc(Br)cc3)n4C3CCCC3)CC2)cc1 | 24.8 µM | 28.4 µM | 52.3 µM | – | –
Clc1ccc(N2CCN(c3ncnc4c3nc(-c3ccc(Br)cc3)n4C3CCCC3)CC2)cc1 | 51.6 µM | – | – | inactive | Activity [2]: inactive
Fc1ccc(-c2nc3c(N4CCN(c5ccccc5)CC4)ncnc3n2C2CCCC2)cc1 | 68.2 µM | 11.4 µM | 13.7 µM | – | –
FC(F)(F)c1ccc(-c2nc3c(N4CCN(c5ccc(C(F)(F)F)cc5)CC4)ncnc3n2C2CCCC2)cc1 | 6.1 µM | 9.3 µM | 10.8 µM | – | IC50 [4]: 19.8 µM; IC50 [7]: 99.1 µM; IC50 [8]: 17 µM; IC50 [5]: 19 µM; IC50 [9]: 16.4 µM; IC50 [10]: 60.6 µM; IC50 [11]: 6.6 µM; IC50 [6]: 4.5 µM; IC50 [12]: 98.7 µM; IC50 [13]: 10.3 µM; IC50 [14]: 24.9 µM
Cc1ccc(N2CCN(c3ncnc4c3nc(-c3ccc(F)cc3)n4C3CCCC3)CC2)cc1 | – | 20.8 µM | 26.1 µM | – | Activity [1]: inactive
FC(F)(F)c1ccc(N2CCN(c3ncnc4c3nc(-c3ccc(Cl)cc3)n4C3CCCC3)CC2)cc1 | 30.3 µM | 19.4 µM | – | inactive | –
Clc1ccc(N2CCN(c3ncnc4c3nc(-c3ccc(Br)cc3)n4C3CCCC3)CC2)cc1Cl | 60.7 µM | – | – | inactive | Activity [2]: inactive
Cc1ccc(-c2nc3c(N4CCN(c5ccc(Cl)cc5)CC4)ncnc3n2C2CCCC2)cc1 | – | 61.8 µM | – | inactive | Activity [1]: inactive
Clc1ccc(-c2nc3c(N4CCN(c5ccc(Cl)c(Cl)c5)CC4)ncnc3n2C2CCCC2)cc1 | – | 58.7 µM | – | inactive | Activity [1]: inactive
Fc1ccc(-c2nc3c(N4CCN(c5ccc(C(F)(F)F)cc5)CC4)ncnc3n2C2CCCC2)cc1 | 32.4 µM | 11.4 µM | 13.5 µM | – | –
Cc1ccc(N2CCN(c3ncnc4c3nc(-c3ccc(C(F)(F)F)cc3)n4C3CCCC3)CC2)cc1 | 30.1 µM | 16.1 µM | 46.2 µM | – | –
Clc1ccc(-c2nc3c(N4CCN(c5ccc(Cl)cc5)CC4)ncnc3n2C2CCCC2)cc1 | 35.8 µM | 39 µM | 64.9 µM | – | –
FC(F)(F)c1ccc(N2CCN(c3ncnc4c3nc(-c3ccc(Br)cc3)n4C3CCCC3)CC2)cc1 | 17.4 µM | 58.1 µM | 58.5 µM | – | –
Cc1ccc(-c2nc3c(N4CCN(c5ccc(Cl)c(Cl)c5)CC4)ncnc3n2C2CCCC2)cc1 | – | – | – | inactive | Activity [1]: inactive; Activity [2]: inactive
COc1ccc(-c2nc3c(N4CCN(c5ccc(C)cc5)CC4)ncnc3n2C2CCCC2)cc1 | 58.4 µM | – | – | inactive | Activity [2]: inactive
FC(F)(F)c1ccc(-c2nc3c(N4CCN(c5ccccc5)CC4)ncnc3n2C2CCCC2)cc1 | 25.9 µM | 7.6 µM | 25.3 µM | – | –
